≈ marks a conversion by molar mass, not a printed value. Like-named read-outs stand apart in the source and are kept apart here.
Key:
[1] = tested on: B. pseudomallei strains 1026b and MSHR 305; type: cell-based, Burkholderia pseudomallei
Burkholderia mallei = assay: microbe, parasite or virus in culture; type: cell-based; conditions: for MIC: Burkholderia mallei
Bacillus anthracis = type: cell-based
B. pseudomallei isolates = assay: microbe, parasite or virus in culture; type: cell-based, Burkholderia pseudomallei
Yersinia pestis = assay: microbe, parasite or virus in culture; type: cell-based; conditions: for MIC: Yersinia pestis
[2] = read-out: MIC values (limit of detection) for OSCN^− with and without bLF
[3] = read-out: Minimal Inhibitory Concentration

N#CSO [OSCN^−, hypothiocyanite]
bacterial counts (limit of detection) through 6 h post inoculation [1]: < 33 CFU/mL
bactericidal effect, overall result in words [1]: substantial bactericidal effect
detectable CFUs from T2h to T6h [1]: no detectable CFUs
growth at T24h [1]: no MSHR 305 growth was detected
kill curve: evolution of microbial load during time [1]: immediate decrease of microbial load after 2 hours
reduction at T24h as compared with the untreated controls [1]: 1.5 to 2 log10
reduction at T24h compared with the untreated control [1]: ~2.5 log10
reduction of final bacterial concentration at T24h as compared with the untreated controls [1]: at least 1.5 log10
inhibition of growth, result in words (Burkholderia mallei): very effective against both strains tested
MIC (Burkholderia mallei; [2]): ≤ 25.9 µg/mL
MIC (Burkholderia mallei; [3]): ≤ 25.9 µg/mL
inhibition of growth, result in words (Bacillus anthracis): MICs at or below the detection limit
concentration of OSCN^− alone that inhibited all isolates (B. pseudomallei isolates): less than 63.3 μg/mL
inhibition of growth, overall result in words (B. pseudomallei isolates): effective in vitro to inhibit the growth
MIC (B. pseudomallei isolates; Burkholderia pseudomallei, NCTC13392, read-out: Minimal Inhibitory Concentration): 48.7 to 61.2 µg/mL (≈ 649 to 815 µM)
inhibition of growth, result in words (Yersinia pestis): very effective against both strains tested
MIC (Yersinia pestis; [2]): ≤ 30.3 µg/mL
MIC (Yersinia pestis; [3]): ≤ 30.3 µg/mL

From patent publication US20150224177A1 (priority 2014, published 2015)
